Measurements reported in patent US20110251158A1, “FULLERENE THERAPIES FOR INFLAMMATION AND INHIBITION OF BUILD-UP OF ARTERIAL PLAQUE” (Luna Innovations Incorporated, priority 2008, published 2011).
Where “and” joins values, the source holds several entries; their conditions need not be identical. Identical values can stand only once.

What was measured:
[1] = test system: Peripheral blood basophils (PBB); assay: Anti-IgE-induced histamine release (degranulation) from PBB; assay type: cell-based, human
Experimental: PBB were obtained from two sources: donors recruited under an IRB-approved protocol after informed consent or from leukopheresis packs obtained from the Johns Hopkins Hemapheresis Center. PBB were purified to ≧99% purity as described in Vonakis, B. M., Gibbons S Jr, Sora, R., Langdon, J. M., and MacDonald, S. M. J. Allergy Clin. Immunol. 108, 822-831 (2001), and Miura, K., Saini, S. S., Gauvreau, G., and MacGlashan, D. W., Jr. J. Immunol. 167, 2282-2291 (2001). Purified PBB were incubated overnight (20 hours) with a fullerene derivative (5 μg/ml) or vehicle control and a minimal (non-stimulatory) concentration of IL-3 (2 pg/ml) to prevent apoptosis. The next day, cells were washed and aliquoted for the histamine release assay by treatment with 0.1 mg/ml of goat polyclonal anti-IgE, buffer alone (spontaneous release) or perchloric acid (total histamine determination). Histamine was quantified in cell free supernatants using automated fluorimetry in duplicate. In a second set of experiments the two fullerene derivatives (at 5 μg/ml) were incubated with PBB for 20 hours, washed cells stimulated with 15 ng/ml anti-IgE for 18 hours in duplicate and supernatants collected for quantification of IL-13 by in-house ELISA. The optimal doses of anti-IgE are chosen for activation of PBB.

Mast cells (MC) = assay: Anti-FcεRI-induced MC degranulation (β-hexosaminidase release); assay type: cell-based, human; details: for Mean percent degranulation, TGA + XL: TGA Treatment @ 10 μg/ml, Exp 1-5 and Average (±SD)
Experimental: MC are a component of the inflammatory response. As such, cultures of human Mast Cells can be used for screening the activity of different fullerene derivatives to evaluate their potential activity in animal models. In this example, human skin tissue was received from the Cooperative Human Tissue Network and MC purified and cultured as described in Kepley, C. L. Int. Arch. Allergy Immunol. 138, 29-39 (2005). The MC were cultured in media containing stem cell factor which is removed from the culture 24 hours prior to experimentation.
For activation, MC were suspended in fresh medium (without cytokines) and incubated for 16 hours with or without fullerene derivatives at 37° C. in a 6% CO2 incubator. […] The next morning, cells were washed and stimulated with anti-FcεRI Abs (3B4; 1 μg/ml) for 30 minutes (β-hexosaminidase) or overnight (GM-CSF) at 37° C. in a 6% CO2 incubator and mediator release measured as described in Zhao, W., Kepley, C. L., Morel, P. A., Okumoto, L. M., Fukuoka, Y., and Schwartz, L. B. J Immunol. 177, 694-701 (2006). All MC mediator release studies were performed in triplicate.
Cells were cultured with fixed concentrations of a fullerene derivative (10 μg/ml; FIGS. 8A and 9A) or different concentrations (FIGS. 8B and 9B) for 16 h, washed and stimulated for 30 min (FIGS. 8A and 8B) or 24 hours (FIGS. 9A and 9B) with optimal concentrations of αanti-FcεRI Abs (3B4; 1 μg/ml). Cells were centrifuged and β-hexosaminidase release and GMCSF levels determined by ELISA.

FcεRI activated genes = assay: Gene microarray of FcεRI-activated MC; assay type: cell-based, human
Experimental: (§1) Mast cells (1×10^7 cell/condition; each condition performed in triplicate) were incubated with or without fullerene derivatives as above and incubated with or without anti-FcεRI antibodies for 10 minutes, supernatants were removed (to remove pre-formed mediators), and fresh warm medium containing anti-FcεRI antibodies (14 ml) added for 2 hours. Cells were centrifuged, the supernatant and the pellet immediately frozen and microarray performed using the Human Whole Genome OneArray™ gene expression profiling service (Phalanx Biotech Group). Separate samples, assayed in parallel were lysed and protein expression analyzed by Western blotting or flow cytometry (CD45) as described in Kepley, C. L., Pfeiffer, J., Wilson, B. W., Schwartz, L. B., and Oliver, J. M. J. Leukocyte Biol. 64, 474-483 (1998).
For microarray RNA was isolated using the Ambion MessageAmp aRNA kit; all samples passed the internal quality control checks. For hybridization each sample was run in triplicate. Optical density was measured by NanoDrop ND-1000. The ratio of absorbance at 260 nm and 280 nm provides an estimate of RNA purity. […] The reactive amino group of 5-(3-aminoallyl)-UTP/5-(3-aminoallyl)-dUTP was used to conjugate the purified aRNA/cDNA with the NHS-CyDye. Labeling efficiency was calculated by the concentration of CyDye and aRNA/cDNA which was above 10. For hybridization 10 μg Cy5-labeled aRNA was utilized by the Phalanx Hybridization Protocol Array Version HOA 4.3.
Pearson correlation tables (R values) for each technical repeat were calculated from raw log 2 intensity (R) and normalized log 2 intensity (N) values and compared to each other. Only probes with P value (detected) less than 0.05 were included in the calculation. […] Greater than 95% of the samples had R values of 0.8 or greater indicating strong correlation between the two parameters.
(§2) In order to examine the genes most affected by fullerene derivative preincubation the resulting values were sorted and filtered the following way. First, the mean (±SD) of the six values from each condition for each of the 30,970 genes was calculated. […]

[2] = test system: E74-like factor 2 (ELF-2); assay: ELF-2 gene expression (microarray) in MC; assay type: cell-based, human; details: gene level
Experimental: as §1
as §2, with “calculated. Second, only normalized value intensities of >100 were included so that follow up detection of protein levels would be more likely to be successful.” for “calculated.”

mice = assay: In vivo administration of TGA for three weeks: behavior, gross pathology; details: i.v. daily; 200 ng/three weeks
Excerpt: (§3) Taken together, the derivatives described herein are not cytotoxic to several cell lines tested and appear to have no acute in vivo cytotoxic effects.

Ames test = details: not shown
Excerpt: as §3

- IC50 (degranulation) ([1]; PBB, maximum inhibition set to 100%): 9.9 µg/mL
- IC50 (degranulation) (Mast cells (MC); maximum inhibition set to 100%): 10.9 (±3.5) μg/ml
- behavior (mice): no notable differences in behavior
- gross pathological examination (mice): no abnormalities
Substance: C70-tetraglycolic acid [TGA]
- Mean % Inhibition of Histamine Release ([1]; 5 μg/ml FD vs vehicle control, listed as C70-TGA): 15.8%
- FD + anti-IgE (mean ± SEM), histamine release ([1]; 5 μg/ml FD, 20 hours, anti-IgE): 39.4 ± 2.3
- maximal inhibition of anti-IgE-induced histamine release ([1]; 50 µg/mL dose, mean±SEM, n=2-3): 37.8±16.25%
- Mean percent degranulation, TGA + XL (Mast cells (MC)): 52.7% and 39.1% and 50.1% and 53.4% and 40.1%
- Mean percent degranulation, TGA + XL (Mast cells (MC); mean): 47.1 (±6.9) percent
- genes whose FcεRI-induced activation was reduced (FcεRI activated genes): over 1000
- genes decreased at least 20% compared to non treated cells (FcεRI activated genes; 2 hours FcεRI activation): 2,603
- genes with greater than 50% inhibition (FcεRI activated genes; 2 hours FcεRI activation): 515
- ELF-2 downregulated [2]: 47%
- mutagenic potential (Ames test): No mutagenic potential
